Measured values reported in PMC4332533 (Neuropharmacology, 2014).

What was measured:
α3β2A127Y receptor = α3β2A127Y receptor (Rattus norvegicus, UniProt P04757+P12390, A153Y); assay: Macroscopic evoked currents, two-electrode voltage-clamp, Xenopus laevis oocytes; format: cell-based; settings: ACh alone; Hill fit
α3β2A127C receptor = α3β2A127C receptor (Rattus norvegicus, UniProt P04757+P12390, A153C); assay: as above; format: cell-based; settings: ACh alone; Hill fit
α3β2D190Q receptor = α3β2D190Q receptor (Rattus norvegicus, UniProt P04757+P12390, D216Q); assay: as above; format: cell-based; settings: ACh alone; Hill fit
Sequence of α3β2D190Q receptor (P04757 26-499): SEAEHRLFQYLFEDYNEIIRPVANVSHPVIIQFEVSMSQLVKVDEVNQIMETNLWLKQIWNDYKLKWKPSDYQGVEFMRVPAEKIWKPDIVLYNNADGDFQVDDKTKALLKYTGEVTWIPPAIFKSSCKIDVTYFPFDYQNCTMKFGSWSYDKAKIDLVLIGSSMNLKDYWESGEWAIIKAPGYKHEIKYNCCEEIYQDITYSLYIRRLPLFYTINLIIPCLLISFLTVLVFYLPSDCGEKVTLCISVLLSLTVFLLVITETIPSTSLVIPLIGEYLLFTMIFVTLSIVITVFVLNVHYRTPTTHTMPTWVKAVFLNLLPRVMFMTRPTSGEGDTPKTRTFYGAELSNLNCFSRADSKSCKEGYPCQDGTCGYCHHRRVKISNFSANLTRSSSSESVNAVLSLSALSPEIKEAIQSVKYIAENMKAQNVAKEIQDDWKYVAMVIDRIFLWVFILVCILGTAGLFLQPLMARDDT
Sequence of α3β2D190Q receptor (P12390 25-500 D216Q): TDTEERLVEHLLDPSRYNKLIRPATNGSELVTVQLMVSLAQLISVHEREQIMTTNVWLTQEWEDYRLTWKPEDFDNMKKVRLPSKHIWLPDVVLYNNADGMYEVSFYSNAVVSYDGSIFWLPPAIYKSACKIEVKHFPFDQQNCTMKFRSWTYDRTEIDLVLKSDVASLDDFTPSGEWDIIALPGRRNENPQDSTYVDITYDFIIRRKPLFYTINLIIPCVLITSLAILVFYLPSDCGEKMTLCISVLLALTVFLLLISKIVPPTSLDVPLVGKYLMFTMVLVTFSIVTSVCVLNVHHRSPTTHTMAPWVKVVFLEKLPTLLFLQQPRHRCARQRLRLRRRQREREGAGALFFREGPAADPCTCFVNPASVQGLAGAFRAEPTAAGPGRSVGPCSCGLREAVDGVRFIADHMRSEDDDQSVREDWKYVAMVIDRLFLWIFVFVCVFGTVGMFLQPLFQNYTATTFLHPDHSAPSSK

α3E173Aβ2R46V receptor = α3E173Aβ2R46V receptor (Rattus norvegicus, UniProt P04757+P12390, E200A/R46V); assay: as above; format: cell-based
Sequence of α3E173Aβ2R46V receptor (P04757 26-499 E200A): as the sequence (P04757 26-499) above, with E175A counted along it
Sequence of α3E173Aβ2R46V receptor (P12390 25-500 R46V): as the sequence (P12390 25-500 D216Q) above, with R22V, Q192D counted along it

α3β2R46V receptor = α3β2R46V receptor (Rattus norvegicus, UniProt P04757+P12390, R72V); assay: as above; format: cell-based; settings: ACh alone; Hill fit
Sequence of α3β2R46V receptor (P04757 26-499): as the sequence (P04757 26-499) above
Sequence of α3β2R46V receptor (P12390 25-500 R72V): as the sequence (P12390 25-500 D216Q) above, with R48V, Q192D counted along it

α3Y168Cβ2D190C receptor = α3Y168Cβ2D190C receptor (Rattus norvegicus, UniProt P04757+P12390, D216C/Y195C); assay: as above; format: cell-based; settings: ACh alone; Hill fit; naive oocytes
Sequence of α3Y168Cβ2D190C receptor (P04757 26-499 Y195C): as the sequence (P04757 26-499) above, with Y170C counted along it
Sequence of α3Y168Cβ2D190C receptor (P12390 25-500 D216C): as the sequence (P12390 25-500 D216Q) above, with Q192C counted along it

α3β2W149A receptor = settings: read-out: EC50 (ACh Activation); ACh alone; Hill fit; cited from earlier work
α3Q37Cβ2 receptor = α3Q37Cβ2 receptor (Rattus norvegicus, UniProt P04757+P12390, Q64C); assay: Macroscopic evoked currents, two-electrode voltage-clamp, Xenopus laevis oocytes; format: cell-based; settings: ACh alone; Hill fit
Sequence of α3Q37Cβ2 receptor (P04757 26-499 Q64C): as the sequence (P04757 26-499) above, with Q39C counted along it
Sequence of α3Q37Cβ2 receptor (P12390 25-500): as the sequence (P12390 25-500 D216Q) above, with Q192D counted along it

α3S125Cβ2 receptor = α3S125Cβ2 receptor (Rattus norvegicus, UniProt P04757+P12390, S152C); assay: as above; format: cell-based; settings: ACh alone; Hill fit
Sequence of α3S125Cβ2 receptor (P04757 26-499 S152C): as the sequence (P04757 26-499) above, with S127C counted along it
Sequence of α3S125Cβ2 receptor (P12390 25-500, stated change not applied): as the sequence (P12390 25-500 D216Q) above, with Q192D counted along it

α3Y168Fβ2D190Q receptor = α3Y168Fβ2D190Q receptor (Rattus norvegicus, UniProt P04757+P12390, D216Q/Y195F); assay: as above; format: cell-based; settings: ACh alone
Sequence of α3Y168Fβ2D190Q receptor (P04757 26-499 Y195F): as the sequence (P04757 26-499) above, with Y170F counted along it
Sequence of α3Y168Fβ2D190Q receptor (P12390 25-500 D216Q): as the sequence (P12390 25-500 D216Q) above

α3S125Yβ2W149A receptor = α3S125Yβ2W149A receptor (Rattus norvegicus, UniProt P04757+P12390, S152Y/W175A); assay: as above; format: cell-based; settings: ACh alone
Sequence of α3S125Yβ2W149A receptor (P04757 26-499 S152Y): as the sequence (P04757 26-499) above, with S127Y counted along it
Sequence of α3S125Yβ2W149A receptor (P12390 25-500 W175A): as the sequence (P12390 25-500 D216Q) above, with W151A, Q192D counted along it

α3β2R46C receptor = α3β2R46C receptor (Rattus norvegicus, UniProt P04757+P12390, R72C); assay: as above; format: cell-based; settings: ACh alone; Hill fit
Sequence of α3β2R46C receptor (P04757 26-499): as the sequence (P04757 26-499) above
Sequence of α3β2R46C receptor (P12390 25-500 R72C): as the sequence (P12390 25-500 D216Q) above, with R48C, Q192D counted along it

α3S125Yβ2A127Y receptor = α3S125Yβ2A127Y receptor (Rattus norvegicus, UniProt P04757+P12390, A153Y/S152Y); assay: as above; format: cell-based; settings: ACh alone
Sequence of α3S125Yβ2A127Y receptor (P04757 26-499 S152Y): as the sequence (P04757 26-499) above, with S127Y counted along it
Sequence of α3S125Yβ2A127Y receptor (P12390 25-500 A153Y): as the sequence (P12390 25-500 D216Q) above, with A129Y, Q192D counted along it

α3Y168Fβ2 receptor = α3Y168Fβ2 receptor (Rattus norvegicus, UniProt P04757+P12390, Y195F); assay: as above; format: cell-based; settings: ACh alone; Hill fit
Sequence of α3Y168Fβ2 receptor (P04757 26-499 Y195F): as the sequence (P04757 26-499) above, with Y170F counted along it
Sequence of α3Y168Fβ2 receptor (P12390 25-500): as the sequence (P12390 25-500 D216Q) above, with Q192D counted along it

α3β2D190C receptor = α3β2D190C receptor (Rattus norvegicus, UniProt P04757+P12390, D216C); assay: as above; format: cell-based; settings: ACh alone; Hill fit
Sequence of α3β2D190C receptor (P04757 26-499): as the sequence (P04757 26-499) above
Sequence of α3β2D190C receptor (P12390 25-500 D216C): as the sequence (P12390 25-500 D216Q) above, with Q192C counted along it

α3Y168Cβ2 receptor = α3Y168Cβ2 receptor (Rattus norvegicus, UniProt P04757+P12390, Y195C); assay: as above; format: cell-based; settings: ACh alone; Hill fit
Sequence of α3Y168Cβ2 receptor (P04757 26-499 Y195C): as the sequence (P04757 26-499) above, with Y170C counted along it
Sequence of α3Y168Cβ2 receptor (P12390 25-500): as the sequence (P12390 25-500 D216Q) above, with Q192D counted along it

α3E173Cβ2 receptor = α3E173Cβ2 receptor (Rattus norvegicus, UniProt P04757+P12390, E200C); assay: as above; format: cell-based; settings: ACh alone; Hill fit
Sequence of α3E173Cβ2 receptor (P04757 26-499 E200C): as the sequence (P04757 26-499) above, with E175C counted along it
Sequence of α3E173Cβ2 receptor (P12390 25-500): as the sequence (P12390 25-500 D216Q) above, with Q192D counted along it

α3β2Q39C receptor = α3β2Q39C receptor (Rattus norvegicus, UniProt P04757+P12390, Q65C); assay: as above; format: cell-based
Sequence of α3β2Q39C receptor (P04757 26-499): as the sequence (P04757 26-499) above
Sequence of α3β2Q39C receptor (P12390 25-500 Q65C): as the sequence (P12390 25-500 D216Q) above, with Q41C, Q192D counted along it

α3S125Cβ2Q39C receptor = α3S125Cβ2Q39C receptor (Rattus norvegicus, UniProt P04757+P12390, Q65C/S152C); assay: as above
Sequence of α3S125Cβ2Q39C receptor (P04757 26-499 S152C): as the sequence (P04757 26-499) above, with S127C counted along it
Sequence of α3S125Cβ2Q39C receptor (P12390 25-500 Q65C): as the sequence (P12390 25-500 D216Q) above, with Q41C, Q192D counted along it

α3E173Cβ2R46C receptor = α3E173Cβ2R46C receptor (Rattus norvegicus, UniProt P04757+P12390, E200C/R46C); assay: as above; format: cell-based
Sequence of α3E173Cβ2R46C receptor (P04757 26-499 E200C): as the sequence (P04757 26-499) above, with E175C counted along it
Sequence of α3E173Cβ2R46C receptor (P12390 25-500 R46C): as the sequence (P12390 25-500 D216Q) above, with R22C, Q192D counted along it

α3Q37Cβ2A127C receptor = α3Q37Cβ2A127C receptor (Rattus norvegicus, UniProt P04757+P12390, A153C/Q64C); assay: as above; format: cell-based; settings: ACh alone
Sequence of α3Q37Cβ2A127C receptor (P04757 26-499 Q64C): as the sequence (P04757 26-499) above, with Q39C counted along it
Sequence of α3Q37Cβ2A127C receptor (P12390 25-500 A153C): as the sequence (P12390 25-500 D216Q) above, with A129C, Q192D counted along it

α3E173Aβ2 receptor = α3E173Aβ2 receptor (Rattus norvegicus, UniProt P04757+P12390, E200A); assay: as above; format: cell-based; settings: ACh alone; Hill fit
Sequence of α3E173Aβ2 receptor (P04757 26-499 E200A): as the sequence (P04757 26-499) above, with E175A counted along it
Sequence of α3E173Aβ2 receptor (P12390 25-500): as the sequence (P12390 25-500 D216Q) above, with Q192D counted along it

[1] = thermodynamic cycle Ω from EC50s, ACh alone, location M4

Sequence of α3β2A127C receptor (P04757 26-499): as the sequence (P04757 26-499) above
Sequence of α3β2A127C receptor (P12390 25-500 A153C): as the sequence (P12390 25-500 D216Q) above, with A129C, Q192D counted along it
Sequence of α3β2A127Y receptor (P04757 26-499): as the sequence (P04757 26-499) above
Sequence of α3β2A127Y receptor (P12390 25-500 A153Y): as the sequence (P12390 25-500 D216Q) above, with A129Y, Q192D counted along it

nH (ACh Activation) (α3β2A127Y receptor): 1.46 ± 0.20 [5]
nH (ACh Activation) (α3β2A127C receptor): 2.09 ± 0.34 [4]
nH (ACh Activation) (α3β2D190Q receptor): 1.00 ± 0.15 [8]
Iaverage evoked by ACh (α3E173Aβ2R46V receptor; 800 µM ACh, n = 8): 990 ± 130 nA
nH (ACh Activation) (α3E173Aβ2R46V receptor; ACh alone, Hill fit): 0.82 ± 0.06 [7–8]
Ω(ACh) (α3E173Aβ2R46V receptor; [1]): 15
nH (ACh Activation) (α3β2R46V receptor): 0.92 ± 0.14 [5–7]
nH (ACh Activation) (α3Y168Cβ2D190C receptor): 0.68 ± 0.08 [10]
nH (ACh Activation) (α3Q37Cβ2 receptor): 1.67 ± 0.44 [4]
nH (ACh Activation) (α3S125Cβ2 receptor): 0.64 ± 0.13 [5–7]
nH (ACh Activation) (α3Y168Fβ2D190Q receptor; Hill fit): 0.83 ± 0.09 [11]
Ω(ACh) (α3Y168Fβ2D190Q receptor; thermodynamic cycle Ω from EC50s, location M1): 18
nH (ACh Activation) (α3S125Yβ2W149A receptor; Hill fit): 0.61 ± 0.10 [6]
Ω(ACh) (α3S125Yβ2W149A receptor; thermodynamic cycle Ω from EC50s, location A2): 0.98
nH (ACh Activation) (α3β2R46C receptor): 0.88 ± 0.13 [5]
nH (ACh Activation) (α3S125Yβ2A127Y receptor; Hill fit): 1.06 ± 0.19 [3]
Ω(ACh) (α3S125Yβ2A127Y receptor; thermodynamic cycle Ω from EC50s, location A2/M3): 3.2
nH (ACh Activation) (α3Y168Fβ2 receptor): 0.61 ± 0.04 [12]
nH (ACh Activation) (α3β2D190C receptor): 1.05 ± 0.14 [9]
nH (ACh Activation) (α3Y168Cβ2 receptor): 0.70 ± 0.11 [11]
nH (ACh Activation) (α3E173Cβ2 receptor): 1.16 ± 0.12 [7]
nH (ACh Activation) (α3β2Q39C receptor; ACh alone, Hill fit): 0.78 ± 0.12 [4]
increase in EC50 for ACh activation vs wild type (α3β2Q39C receptor; from Table 2): 2 fold
nH (ACh Activation) (α3S125Cβ2Q39C receptor; ACh alone, Hill fit, naive oocytes): 0.66 ± 0.09 [3–7]
decrease in EC50 for ACh activation vs wild type (α3S125Cβ2Q39C receptor; from Table 2): 60 fold
Ω(ACh) (α3S125Cβ2Q39C receptor; thermodynamic cycle Ω from EC50s, ACh alone, location A2): 0.16
Iaverage evoked by ACh (α3E173Cβ2R46C receptor; 2 mM ACh, n = 8, one successful expression attempt): 60 ± 10 nA
nH (ACh Activation) (α3E173Cβ2R46C receptor; ACh alone, Hill fit): 0.85 ± 0.10 [5–6]
Ω(ACh) (α3E173Cβ2R46C receptor; [1]): 2.4
nH (ACh Activation) (α3Q37Cβ2A127C receptor; Hill fit, naive oocytes): 0.97 ± 0.13 [6]
Ω(ACh) (α3Q37Cβ2A127C receptor; thermodynamic cycle Ω from EC50s, location M3): 0.64
nH (ACh Activation) (α3E173Aβ2 receptor): 1.77 ± 0.26 [3–6]
SMILES: CC(=O)OCC[N+](C)(C)C [ACh, acetylcholine]
EC50 (α3β2W149A receptor): 40 ± 6 µM
